Assay results from ChEMBL document CHEMBL6153137, “Design, Synthesis, and Biological Evaluation of Novel Orally Available Covalent CDK12/13 Dual Inhibitors for the Treatment of Tumors” (J Med Chem, 2025).
pIC50: −log10 of the molar value. Activity calls are given as the source filed them. The rule behind the calls is not given here.

Assays:
[1] = Toxicity against female Sprague-Dawley rat assessed as effect on chlorine level in blood at 7.5 to 30 mg/kg, po administered once daily via gavage for 28 days and measured on day 29; format: organism-based; settings: in vivo, 696 h, dose 7.5-30 mg/kg, time 29 day
[2] = system: MDA-MB-231; assay: Antiproliferative activity against human MDA-MB-231 cells assessed as reduction in cell viability incubated for 7 days by CellTiter-Glo reagent based luminescence analysis; format: functional; settings: MDA-MB-231, 168 h
[3] = biological target: T1, Cyclin-dependent kinase 12/13 (Homo sapiens) (UniProt Q14004+Q9NYV4); assay: Inhibition of CDK12/13 in human SUM149PT cells assessed as reduction in level of phosphorylation of Ser2 on RNA Pol II CTD at 250 to 1000 nM by western blot analysis; format: cell-based; settings: dose 250-1000 nM, time lower 1.0 hrs, time upper […]
[4] = biological target: T1, Cyclin-dependent kinase 12/13 (Homo sapiens); assay: Inhibition of CDK12/13 in human SUM149PT cells assessed as reduction in FANCI gene expression at 500 nM incubated for 8 to 24 hrs by qPCR analysis; format: cell-based; settings: time lower 8.0 hrs, time upper […]
[5] = Cmax in Balb/c mouse xenografted with human MV4-11 cells at 30 mg/kg, po administered once daily via gavage; format: ADME, organism-based; settings: in vivo
[6] = biological target: CDK1/Cyclin A (Homo sapiens) (UniProt P06493+P20248); assay: Inhibition of human recombinant N-terminal GST-tagged CDK1/N-terminal GST-tagged and C-terminal 8X His-tagged Cyclin A2 expressed in HEP Sf9 cells using ATP as substrate at 2 uM measured after 60 mins by ADP-Glo reagent based luminescence analysis
[7] = Toxicity against female Sprague-Dawley rat assessed as decrease in lymphocytes content at 7.5 to 30 mg/kg, po administered once daily via gavage for 28 days and measured on day 29; format: organism-based; settings: in vivo, 696 h, dose 7.5-30 mg/kg, time 29 day
[8] = AUC(0 to t) in male Sprague-Dawley rat at 40 mg/kg, po administered once daily via gavage for 28 days; format: ADME, organism-based; settings: in vivo, 672 h, time 28 day
[9] = Cmax in Sprague-Dawley rat at 50 mg/kg, po measured for 24 hrs by LC-MS/MS analysis; format: ADME, organism-based; settings: in vivo
[10] = Volume of distribution at steady state in CD-1 mouse at 1 mg/kg, iv measured for 24 hrs by LC-MS/MS analysis; format: ADME, organism-based; settings: in vivo, read-out: Vdss
[11] = Half life in female Sprague-Dawley rat at 15 mg/kg, po administered once daily via gavage for 28 days; format: ADME, organism-based; settings: in vivo, time 28 day
[12] = AUC(0 to t) in male Sprague-Dawley rat at 10 mg/kg, po administered once daily via gavage for 28 days; format: ADME, organism-based; settings: in vivo, 672 h, time 28 day
[13] = AUC in Balb/c mouse xenografted with human SUM149PT cells at 30 mg/kg, po administered once daily via gavage; format: ADME, organism-based; settings: in vivo
[14] = Permeability of the compound in human Caco-2 cells at 2 uM incubated for 2 hrs by LC-MS/MS analysis; format: ADME, cell-based; settings: read-out: permeability

Sequence of CDK1/Cyclin A (Homo sapiens) (P06493 whole entry, looked up): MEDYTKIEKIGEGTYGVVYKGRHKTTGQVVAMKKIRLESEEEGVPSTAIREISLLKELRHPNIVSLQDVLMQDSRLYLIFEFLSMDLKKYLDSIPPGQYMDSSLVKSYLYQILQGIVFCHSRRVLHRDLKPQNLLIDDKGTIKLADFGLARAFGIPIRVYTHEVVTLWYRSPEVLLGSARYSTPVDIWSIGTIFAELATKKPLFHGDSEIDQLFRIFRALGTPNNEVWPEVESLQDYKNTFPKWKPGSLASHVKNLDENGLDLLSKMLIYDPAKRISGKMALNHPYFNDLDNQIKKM
Sequence of CDK1/Cyclin A (Homo sapiens) (P20248 whole entry, looked up): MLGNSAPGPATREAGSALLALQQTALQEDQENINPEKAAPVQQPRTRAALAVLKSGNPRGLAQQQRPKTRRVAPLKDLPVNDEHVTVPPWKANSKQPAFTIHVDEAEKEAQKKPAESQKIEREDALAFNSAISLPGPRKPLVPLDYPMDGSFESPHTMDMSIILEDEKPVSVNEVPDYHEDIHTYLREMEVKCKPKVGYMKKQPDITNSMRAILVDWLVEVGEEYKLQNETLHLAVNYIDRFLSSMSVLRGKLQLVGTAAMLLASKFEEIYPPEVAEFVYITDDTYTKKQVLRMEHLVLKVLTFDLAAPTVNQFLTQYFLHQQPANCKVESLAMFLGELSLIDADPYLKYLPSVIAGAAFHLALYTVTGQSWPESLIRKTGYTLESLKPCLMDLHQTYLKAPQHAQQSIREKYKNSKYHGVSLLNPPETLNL

SMILES: C=CC(=O)N1CCc2c(ncnc2N2CC[C@@H](Nc3ncc(Cl)c(OC)n3)C2)C1
- Activity [1]: Non-toxic
- pIC50 [2]: 7.24
- inhibition [3]: Time-dependent-effect
- inhibition [4]: Active
- Cmax [5]: 1350 ng/mL
- inhibition [6]: 10%
- Activity [7]: Toxic
- AUCt [8]: 6070 ng·h/mL
- Cmax [9]: 1900 ng/mL
- Vd [10]: 0.87 L/kg
- half-life [11]: 2.3 h
- AUCt [12]: 1330 ng·h/mL
- AUC [13]: 2690 ng·h/mL
- Papp at 2 h, 2 µM [14]: 4.6 ×10⁻⁶ cm/s
